In ChEMBL document CHEMBL5303573, “Mapping human microbiome drug metabolism by gut bacteria and their genes” (Nature, 2019):

Key:
[1] = segatella copri, 12 h, 2 µM
[2] = The drug is tested on Coprococcus comes strain: ATCC27758 for biotransformation. The drug concentrations were measured before and after a 12-h incubation by liquid-chromatography-coupled mass spectrometry (LC–MS); type: ADME; set-up: dose 2 uM, timepoint 0 vs 12 hours; settings: 2 µM
[3] = The drug is tested on Eubacterium ventriosum strain: ATCC27560 for biotransformation. The drug concentrations were measured before and after a 12-h incubation by liquid-chromatography-coupled mass spectrometry (LC–MS); type: ADME; set-up: dose 2 uM, timepoint 0 vs 12 hours; settings: 2 µM
[4] = bifidobacterium adolescentis, 12 h, 2 µM
[5] = limosilactobacillus reuteri cf48-3a, 12 h, 2 µM
[6] = bacteroides intestinalis, 12 h, 2 µM
[7] = The drug is tested on Bacteroides sp. WH2 strain: WH2 for biotransformation. The drug concentrations were measured before and after a 12-h incubation by liquid-chromatography-coupled mass spectrometry (LC–MS); settings: bacteroides sp. wh2, 12 h, 2 µM
[8] = The drug is tested on Subdoligranulum variabile strain: DSM15176 for biotransformation. The drug concentrations were measured before and after a 12-h incubation by liquid-chromatography-coupled mass spectrometry (LC–MS); settings: 2 µM
[9] = The drug is tested on Ruminococcus gnavus strain: ATCC29149 for biotransformation. The drug concentrations were measured before and after a 12-h incubation by liquid-chromatography-coupled mass spectrometry (LC–MS); settings: mediterraneibacter gnavus, 2 µM
[10] = The drug is tested on Dorea formicigenerans strain: ATCC27755 for biotransformation. The drug concentrations were measured before and after a 12-h incubation by liquid-chromatography-coupled mass spectrometry (LC–MS); settings: 2 µM
[11] = The drug is tested on Clostridium symbiosum strain: ATCC14940 for biotransformation. The drug concentrations were measured before and after a 12-h incubation by liquid-chromatography-coupled mass spectrometry (LC–MS); settings: 2 µM
[12] = The drug is tested on Blautia luti strain: DSM14534 for biotransformation. The drug concentrations were measured before and after a 12-h incubation by liquid-chromatography-coupled mass spectrometry (LC–MS); type: ADME; set-up: dose 2 uM, timepoint 0 vs 12 hours; settings: 2 µM
[13] = The drug is tested on Eubacterium rectale strain: ATCC33656 for biotransformation. The drug concentrations were measured before and after a 12-h incubation by liquid-chromatography-coupled mass spectrometry (LC–MS); settings: agathobacter rectalis, 2 µM
[14] = enterocloster bolteae, 12 h, 2 µM
[15] = The drug is tested on Bacteroides ovatus strain: ATCC8483 for biotransformation. The drug concentrations were measured before and after a 12-h incubation by liquid-chromatography-coupled mass spectrometry (LC–MS); settings: 2 µM
[16] = The drug is tested on Bacteroides xylanisolvens strain: DSM18836 for biotransformation. The drug concentrations were measured before and after a 12-h incubation by liquid-chromatography-coupled mass spectrometry (LC–MS); settings: 2 µM
[17] = The drug is tested on Providencia stuartii strain: ATCC25827 for biotransformation. The drug concentrations were measured before and after a 12-h incubation by liquid-chromatography-coupled mass spectrometry (LC–MS); settings: 2 µM
[18] = The drug is tested on Bifidobacterium ruminantium strain: fecal isolate for biotransformation. The drug concentrations were measured before and after a 12-h incubation by liquid-chromatography-coupled mass spectrometry (LC–MS); settings: 2 µM
[19] = The drug is tested on Enterobacter cancerogenus strain: ATCC35316 for biotransformation. The drug concentrations were measured before and after a 12-h incubation by liquid-chromatography-coupled mass spectrometry (LC–MS); settings: 2 µM
[20] = The drug is tested on Bacteroides cellulosilyticus strain: DSM14838 for biotransformation. The drug concentrations were measured before and after a 12-h incubation by liquid-chromatography-coupled mass spectrometry (LC–MS); settings: 2 µM

Structure (SMILES)	Bacterial Biotransformation [1]	Bacterial Biotransformation [2]	Bacterial Biotransformation [3]	Bacterial Biotransformation [4]	Bacterial Biotransformation [5]	Bacterial Biotransformation [6]	Bacterial Biotransformation [7]	Bacterial Biotransformation [8]	Bacterial Biotransformation [9]	Bacterial Biotransformation [10]	Bacterial Biotransformation [11]	Bacterial Biotransformation [12]	Bacterial Biotransformation [13]	Bacterial Biotransformation [14]	Bacterial Biotransformation [15]	Bacterial Biotransformation [16]	Bacterial Biotransformation [17]	Bacterial Biotransformation [18]	Bacterial Biotransformation [19]	Bacterial Biotransformation [20]
O=C1CC2(CCCC2)CC(=O)N1CCCCN1CCN(c2ncccn2)CC1 [BUSPIRONE]	Compound NOT metabolized	Compound NOT metabolized	Compound NOT metabolized	Compound NOT metabolized	Compound NOT metabolized	Compound NOT metabolized	Compound NOT metabolized	Compound NOT metabolized	Compound NOT metabolized	Compound NOT metabolized	Compound NOT metabolized	Compound NOT metabolized	Compound NOT metabolized	Compound NOT metabolized	Compound NOT metabolized	Compound NOT metabolized	Compound NOT metabolized	–	–	–
COC1=CC(=O)C[C@@H](C)[C@]12Oc1c(Cl)c(OC)cc(OC)c1C2=O [GRISEOFULVIN]	Compound metabolized	Compound NOT metabolized	Compound NOT metabolized	Compound NOT metabolized	Compound NOT metabolized	–	Compound NOT metabolized	Compound NOT metabolized	Compound metabolized	Compound NOT metabolized	Compound NOT metabolized	Compound NOT metabolized	Compound NOT metabolized	Compound NOT metabolized	–	Compound metabolized	–	Compound NOT metabolized	–	–
COc1cc2nc(N3CCN(C(=O)c4ccco4)CC3)nc(N)c2cc1OC [PRAZOSIN]	Compound NOT metabolized	Compound NOT metabolized	Compound NOT metabolized	Compound NOT metabolized	Compound NOT metabolized	Compound NOT metabolized	Compound NOT metabolized	–	–	Compound NOT metabolized	–	Compound NOT metabolized	Compound NOT metabolized	Compound NOT metabolized	Compound NOT metabolized	Compound NOT metabolized	Compound NOT metabolized	Compound NOT metabolized	Compound NOT metabolized	Compound NOT metabolized
CC(N)C12CC3CC(CC(C3)C1)C2 (centres undefined) [RIMANTADINE]	Compound NOT metabolized	Compound NOT metabolized	Compound NOT metabolized	Compound NOT metabolized	Compound NOT metabolized	Compound NOT metabolized	Compound NOT metabolized	–	Compound NOT metabolized	Compound NOT metabolized	Compound NOT metabolized	Compound NOT metabolized	Compound NOT metabolized	Compound NOT metabolized	Compound NOT metabolized	Compound NOT metabolized	Compound NOT metabolized	Compound NOT metabolized	Compound NOT metabolized	Compound NOT metabolized
CC(C)c1nc(N(C)S(C)(=O)=O)nc(-c2ccc(F)cc2)c1/C=C/[C@@H](O)C[C@@H](O)CC(=O)[O-].CC(C)c1nc(N(C)S(C)(=O)=O)nc(-c2ccc(F)cc2)c1/C=C/[C@@H](O)C[C@@H](O)CC(=O)[O-].[Ca+2] [ROSUVASTATIN CALCIUM]	–	Compound NOT metabolized	Compound NOT metabolized	Compound NOT metabolized	Compound NOT metabolized	Compound NOT metabolized	Compound NOT metabolized	–	Compound NOT metabolized	Compound NOT metabolized	Compound NOT metabolized	Compound NOT metabolized	Compound NOT metabolized	Compound NOT metabolized	–	Compound NOT metabolized	Compound NOT metabolized	Compound NOT metabolized	Compound NOT metabolized	Compound NOT metabolized
CC(C)NCC(O)c1ccc(NS(C)(=O)=O)cc1 (centres undefined) [SOTALOL]	Compound NOT metabolized	Compound NOT metabolized	–	Compound NOT metabolized	Compound NOT metabolized	–	Compound NOT metabolized	–	Compound NOT metabolized	Compound NOT metabolized	Compound NOT metabolized	Compound NOT metabolized	–	Compound NOT metabolized	Compound metabolized	Compound NOT metabolized	Compound NOT metabolized	Compound NOT metabolized	Compound NOT metabolized	Compound NOT metabolized
CN1C(C(=O)Nc2ccccn2)=C(O)c2sccc2S1(=O)=O [TENOXICAM]	Compound NOT metabolized	–	Compound NOT metabolized	Compound NOT metabolized	Compound NOT metabolized	Compound NOT metabolized	–	Compound NOT metabolized	Compound NOT metabolized	Compound NOT metabolized	Compound NOT metabolized	Compound NOT metabolized	Compound NOT metabolized	–	Compound NOT metabolized	–	Compound NOT metabolized	Compound NOT metabolized	–	–
COc1ccc(CN2CCNCC2)c(OC)c1OC.Cl.Cl [TRIMETAZIDINE DIHYDROCHLORIDE]	Compound NOT metabolized	Compound NOT metabolized	Compound NOT metabolized	Compound NOT metabolized	Compound NOT metabolized	Compound metabolized	Compound metabolized	–	Compound NOT metabolized	Compound NOT metabolized	Compound NOT metabolized	Compound NOT metabolized	Compound NOT metabolized	Compound NOT metabolized	Compound metabolized	Compound metabolized	Compound NOT metabolized	Compound NOT metabolized	Compound NOT metabolized	Compound metabolized
